Laboratory results as given in PubChem BioAssay AID248 (DTP/NCI, 2004).
Several values for one entry are separate records, joined by “and”; a condition that tells them apart may be missing. Identical values can stand only once. Toxic doses and inconclusive results are not listed. No stated cut-off is given here; in the data, active means T/C of 150% or more; inactive means T/C below 125%.

Tested on: L1210 leukemia ip in BDF1 mice, survival T/C
Assay: NCI In Vivo Anticancer Drug Screen. Data for tumor model L1210 Leukemia (intraperitoneal) in B6D2F1 (BDF1) mice
Settings: endpoint: mean survival time, higher = longer survival
In short: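 Mice bearing the transplanted tumor received compound or vehicle. Survival of the treated group was divided by that of the vehicle-treated control group to give the ratio.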

[1] = dose: 100.0 mg/kg/injection, schedule: Q01DX009 (ip), vehicle: Klucel (hydroxypropylcellulose) (HPC)
[2] = dose: 100.0 mg/kg/injection, schedule: Q04DX003 (ip), vehicle: Klucel (hydroxypropylcellulose) (HPC)
[3] = dose: 200.0 mg/kg/injection, schedule: Q01DX009 (ip), vehicle: Klucel (hydroxypropylcellulose) (HPC)
[4] = dose: 200.0 mg/kg/injection, schedule: Q04DX003 (ip), vehicle: Klucel (hydroxypropylcellulose) (HPC)
[5] = dose: 400.0 mg/kg/injection, schedule: Q01DX009 (ip), vehicle: Klucel (hydroxypropylcellulose) (HPC)
[6] = dose: 400.0 mg/kg/injection, schedule: Q04DX003 (ip), vehicle: Klucel (hydroxypropylcellulose) (HPC)
[7] = dose: 100.0 mg/kg/injection, schedule: Q01DX001 (ip), vehicle: saline
[8] = dose: 200.0 mg/kg/injection, schedule: Q01DX001 (ip), vehicle: saline
[9] = dose: 100.0 mg/kg/injection, schedule: Q01DX001 (ip), vehicle: saline with Tween-80
[10] = dose: 400.0 mg/kg/injection, schedule: Q01DX001 (ip), vehicle: saline
[11] = dose: 100.0 mg/kg/injection, schedule: Q01DX001 (ip), vehicle: other
[12] = dose: 200.0 mg/kg/injection, schedule: Q01DX001 (ip), vehicle: other
[13] = dose: 400.0 mg/kg/injection, schedule: Q01DX001 (ip), vehicle: other

Measured: T/C

O=C1NCC(c2ccccc2)(c2ccccc2)C(=O)N1
inactive: dose: 50.0 mg/kg/injection, schedule: Q01DX001 (ip), vehicle: carboxymethylcellulose (CMC) 94 % of control | dose: 100.0 mg/kg/injection, schedule: Q01DX001 (ip), vehicle: carboxymethylcellulose (CMC) 94 % of control | dose: 200.0 mg/kg/injection, schedule: Q01DX001 (ip), vehicle: carboxymethylcellulose (CMC) 91 % of control | dose: 400.0 mg/kg/injection, schedule: Q01DX001 (ip), vehicle: carboxymethylcellulose (CMC) 86 % of control

COc1ccc(C(=O)/C=C/c2ccc(O)cc2)cc1
inactive: dose: 75.0 mg/kg/injection, schedule: Q04DX003 (ip), vehicle: saline 100 % of control | dose: 150.0 mg/kg/injection, schedule: Q04DX003 (ip), vehicle: saline 96 % of control | dose: 300.0 mg/kg/injection, schedule: Q04DX003 (ip), vehicle: saline 93 % of control

CC1(C)CC(=O)c2c(cc(O)c3ccc(=O)oc23)O1
inactive: [1] 96 % of control | [2] 100 % of control | [3] 98 % of control | [4] 104 % of control | [5] 91 % of control | [6] 96 % of control

c1ccc(CNc2cnccn2)cc1
inactive: [7] 105 % of control | [8] 105 % of control

Nc1nc(N)c2[nH]c(CCNc3ccc(C(=O)O)cc3)nc2n1
inactive: dose: 6.25 mg/kg/injection, schedule: Q01DX001 (ip), vehicle: saline with Tween-80 96 % of control | dose: 12.5 mg/kg/injection, schedule: Q01DX001 (ip), vehicle: saline with Tween-80 92 % of control | dose: 25.0 mg/kg/injection, schedule: Q01DX001 (ip), vehicle: saline with Tween-80 94 % of control and 101 % of control | dose: 50.0 mg/kg/injection, schedule: Q01DX001 (ip), vehicle: saline with Tween-80 98 % of control | [9] 102 % of control

COc1cc2c(cc1O)C(=O)CCCC2
inactive: dose: 100.0 mg/kg/injection, schedule: Q01DX009 (ip), vehicle: saline sonified 94 % of control | [2] 94 % of control | dose: 200.0 mg/kg/injection, schedule: Q01DX009 (ip), vehicle: saline sonified 103 % of control | [4] 92 % of control | dose: 400.0 mg/kg/injection, schedule: Q01DX009 (ip), vehicle: saline sonified 90 % of control | [6] 100 % of control

Cc1ccc(-n2cnc3c(=O)[nH]cnc32)cc1
inactive: [7] 98 % of control | [8] 93 % of control | [10] 93 % of control

O=C1CNC(=O)CN1
inactive: dose: 75.0 mg/kg/injection, schedule: Q01DX009 (ip), vehicle: saline 94 % of control | dose: 100.0 mg/kg/injection, schedule: Q04DX003 (ip), vehicle: saline 103 % of control | dose: 150.0 mg/kg/injection, schedule: Q01DX009 (ip), vehicle: saline 92 % of control | dose: 200.0 mg/kg/injection, schedule: Q04DX003 (ip), vehicle: saline 106 % of control | dose: 300.0 mg/kg/injection, schedule: Q01DX009 (ip), vehicle: saline 94 % of control | dose: 400.0 mg/kg/injection, schedule: Q04DX003 (ip), vehicle: saline 100 % of control

CC(=O)NC1C(OC(=O)c2ccccc2)OC(CO)C(O)C1OC(=O)c1ccccc1 (stereo not given)
inactive: [9] 101 % of control | dose: 200.0 mg/kg/injection, schedule: Q01DX001 (ip), vehicle: saline with Tween-80 105 % of control | dose: 400.0 mg/kg/injection, schedule: Q01DX001 (ip), vehicle: saline with Tween-80 94 % of control

Cc1ccc(N=Nc2c(N)nc(N)[nH]c2=O)cc1C
inactive: [7] 100 % of control | [8] 96 % of control | [10] 96 % of control

O=S(=O)(ON1C=CC=CC1)ON1C=CC=CC1
inactive: dose: 25.0 mg/kg/injection, schedule: Q04DX002 (ip), vehicle: saline with Tween-80 106 % of control | dose: 50.0 mg/kg/injection, schedule: Q04DX002 (ip), vehicle: saline with Tween-80 95 % of control | dose: 100.0 mg/kg/injection, schedule: Q04DX002 (ip), vehicle: saline with Tween-80 106 % of control

Cn1c2c(c(=O)n(C)c1=O)C(=Nc1ccccc1N)C(=O)N2
inactive: [7] 101 % of control | [8] 101 % of control | [10] 90 % of control

O=C(Nc1cccc(F)c1)Nc1ccccc1C(F)(F)F
inactive: [1] 97 % of control | [3] 91 % of control | [5] 94 % of control

CCCCCCCCN(CCCCCCCC)NC(C)=O
inactive: dose: 50.0 mg/kg/injection, schedule: Q01DX001 (ip), vehicle: other 96 % of control | [11] 104 % of control | [12] 96 % of control | [13] 93 % of control

CN1C2CSCC1CC(O)C2 (stereo not given)
inactive: dose: 37.0 mg/kg/injection, schedule: Q04DX003 (ip), vehicle: other 101 % of control | dose: 37.5 mg/kg/injection, schedule: Q01DX009 (ip), vehicle: other 105 % of control | dose: 75.0 mg/kg/injection, schedule: Q01DX001 (ip), vehicle: other 102 % of control | dose: 75.0 mg/kg/injection, schedule: Q01DX001 (ip), vehicle: saline 103 % of control | dose: 75.0 mg/kg/injection, schedule: Q01DX009 (ip), vehicle: other 104 % of control | dose: 75.0 mg/kg/injection, schedule: Q04DX003 (ip), vehicle: other 98 % of control | dose: 150.0 mg/kg/injection, schedule: Q01DX001 (ip), vehicle: other 93 % of control | dose: 150.0 mg/kg/injection, schedule: Q01DX009 (ip), vehicle: other 104 % of control | dose: 150.0 mg/kg/injection, schedule: Q04DX003 (ip), vehicle: other 101 % of control

CC(C)(C)S(=O)(=O)CCCl
inactive: dose: 75.0 mg/kg/injection, schedule: Q01DX009 (ip), vehicle: Klucel (hydroxypropylcellulose) (HPC) 93 % of control | dose: 100.0 mg/kg/injection, schedule: Q01DX005 (ip), vehicle: Klucel (hydroxypropylcellulose) (HPC) 96 % of control | dose: 100.0 mg/kg/injection, schedule: Q04DX002 (ip), vehicle: Klucel (hydroxypropylcellulose) (HPC) 88 % of control | dose: 150.0 mg/kg/injection, schedule: Q01DX009 (ip), vehicle: Klucel (hydroxypropylcellulose) (HPC) 93 % of control | dose: 200.0 mg/kg/injection, schedule: Q01DX005 (ip), vehicle: Klucel (hydroxypropylcellulose) (HPC) 100 % of control | dose: 200.0 mg/kg/injection, schedule: Q04DX002 (ip), vehicle: Klucel (hydroxypropylcellulose) (HPC) 100 % of control | dose: 300.0 mg/kg/injection, schedule: Q01DX009 (ip), vehicle: Klucel (hydroxypropylcellulose) (HPC) 96 % of control | dose: 400.0 mg/kg/injection, schedule: Q01DX005 (ip), vehicle: Klucel (hydroxypropylcellulose) (HPC) 100 % of control | dose: 400.0 mg/kg/injection, schedule: Q04DX002 (ip), vehicle: Klucel (hydroxypropylcellulose) (HPC) 100 % of control

ONc1ccc(Cl)cc1
inactive: dose: 6.25 mg/kg/injection, schedule: Q01DX009 (ip), vehicle: gum acacia 105 % of control | dose: 12.5 mg/kg/injection, schedule: Q01DX001 (ip), vehicle: gum acacia 104 % of control | dose: 12.5 mg/kg/injection, schedule: Q01DX009 (ip), vehicle: gum acacia 100 % of control | dose: 12.5 mg/kg/injection, schedule: Q04DX003 (ip), vehicle: gum acacia 100 % of control | dose: 25.0 mg/kg/injection, schedule: Q01DX001 (ip), vehicle: gum acacia 104 % of control | dose: 25.0 mg/kg/injection, schedule: Q04DX003 (ip), vehicle: gum acacia 98 % of control | dose: 50.0 mg/kg/injection, schedule: Q01DX001 (ip), vehicle: gum acacia 100 % of control

CCCCCNC(=O)CC(O)C(=O)NCCCCC (stereo not given)
inactive: [11] 87 % of control | [12] 98 % of control | [13] 96 % of control

C=C(C)c1ccc(C)c(C)c1
inactive: dose: 25.0 mg/kg/injection, schedule: Q04DX003 (ip), vehicle: saline with Tween-80 100 % of control | dose: 50.0 mg/kg/injection, schedule: Q04DX003 (ip), vehicle: saline with Tween-80 106 % of control | dose: 100.0 mg/kg/injection, schedule: Q04DX003 (ip), vehicle: saline with Tween-80 94 % of control | dose: 200.0 mg/kg/injection, schedule: Q04DX003 (ip), vehicle: saline with Tween-80 95 % of control | dose: 400.0 mg/kg/injection, schedule: Q04DX003 (ip), vehicle: saline with Tween-80 90 % of control

C1CCC(N2CC3CCCC2O3)CC1 (stereo not given)
inactive: dose: 50.0 mg/kg/injection, schedule: Q01DX001 (ip), vehicle: saline 101 % of control | [7] 97 % of control | [8] 95 % of control
